# Laboratory results as given in patent US20140206615A1, “GLP-1 AGONIST AND CARDIOVASCULAR COMPLICATIONS” (NOVO NORDISK A/S, priority 2002, published 2014).
# System: BNP in heart tissue
# Assay: BNP mRNA and protein levels in cardiac biopsies of STZ-treated pigs (real-time PCR, RIA)
# Format: in vivo, pig
# Conditions: streptozotocin (STZ)-treated pigs; 3.3 μg/kg s.c. once daily for 4 weeks; right atrial, left atrial and left ventricular biopsies; FIG. 1
# Procedure: Hearts from 12 streptozotocin (STZ)-treated pigs were collected. The pigs were treated with STZ 2 weeks prior to dosing with either the GLP-1 derivative Arg^34, Lys^26(N^ε-(γ-Glu(N^α-hexadecanoyl)))-GLP-1(7-37) (NN2211) for 4 weeks, dose 3.3 μg/kg s.c. once daily, or vehicle. STZ-treated pigs were either hyperglycemic or glucose intolerant and had impaired insulin secretion upon oral glucose tolerance tests. BNP mRNA and protein levels in cardiac biopsies were measured with real-time PCR and RIA assays, respectively. BNP mRNA levels were normalized by β-actin mRNA levels.
# BNP mRNA levels were similar in right atrial (RA), left atrial (LA) and in left ventricular (LV) biopsies from vehicle treated diabetic pigs (−GLP).
structure (smiles),measurement,value
"CCCCCCCCCCCCCCCC(=O)N[C@@H](CCC(=O)NCCCC[C@H](NC(=O)[C@H](C)NC(=O)[C@H](C)NC(=O)[C@H](CCC(N)=O)NC(=O)CNC(=O)[C@H](CCC(=O)O)NC(=O)[C@H](CC(C)C)NC(=O)[C@H](Cc1ccc(O)cc1)NC(=O)[C@H](CO)NC(=O)[C@H](CO)NC(=O)[C@@H](NC(=O)[C@H](CC(=O)O)NC(=O)[C@H](CO)NC(=O)[C@@H](NC(=O)[C@H](Cc1ccccc1)NC(=O)[C@@H](NC(=O)CNC(=O)[C@H](CCC(=O)O)NC(=O)[C@H](C)NC(=O)[C@@H](N)Cc1cnc[nH]1)[C@@H](C)O)[C@@H](C)O)C(C)C)C(=O)N[C@@H](CCC(=O)O)C(=O)N[C@@H](Cc1ccccc1)C(=O)N[C@H](C(=O)N[C@@H](C)C(=O)N[C@@H](Cc1c[nH]c2ccccc12)C(=O)N[C@@H](CC(C)C)C(=O)N[C@H](C(=O)N[C@@H](CCCNC(=N)N)C(=O)NCC(=O)N[C@@H](CCCNC(=N)N)C(=O)NCC(=O)O)C(C)C)[C@@H](C)CC)C(=O)O [NN2211, Arg^34, Lys^26(N^ε-(γ-Glu(N^α-hexadecanoyl)))-GLP-1(7-37)]",levels of BNP (BNP mRNA normalized by β-actin mRNA) in cardiac biopsies vs vehicle,significantly lower
